Source: patent US7183324B2, “2,3,4-substituted cyclopentanones as therapeutic agents” (Allergan, Inc., priority 2004, dated 2007)

Columns and labels:
Beagle dogs [1] = experiment: Intraocular pressure in dogs (pneumatonometry); type: in vivo; details: dog, topical 25 μL drop, Conc. 0.03%, 5 day study
Description: (§1) • Intraocular Pressure (IOP) Intraocular pressure studies in dogs involved pneumatonometry performed in conscious, Beagle dogs of both sexes (10–15 kg). The animals remained conscious throughout the study and were gently restrained by hand. Drugs were administered topically to one eye as a 25 μL volume drop, the other eye received 25 μL vehicle (0.1% polysorbate 80:10 mM TRIS) as a control. Proparacaine (0.1%) was used for corneal anesthesia during tonometry. Intraocular pressure was determined just before drug administration and at 2, 4 and 6 hr thereafter on each day of the 5 day study. Drug was administered immediately after the first IOP reading. • An analogous procedure was carried out with cynomolgus monkeys with measurements at 2, 4, 6, and 24 hours after a single dose. • Pupil Diameter • Dog pupil diameter was measured using an optistick (a mm ruler which included half-circle references of standard widths (mm) for reference. Gently restraining the dog by hand, pupil diameter was determined by matching a half-circle to the pupil in normal room light. In dogs with very dark pupils a specialized penlight was used, but only very briefly to avoid pupil constriction. Pupil diameter was measured at the same time as IOP and hyperemia. • Ocular Surface Hyperemia • Ocular surface hyperemia was visually assessed and scored according to a system typically used clinically.

Beagle dogs [2] = experiment: Ocular surface hyperemia in dogs; type: in vivo; details: dog, topical, Conc. 0.03%; score: trace 0.5, mild 1, moderate 2, severe 3
Description: as §1
• Ocular surface hyperemia was evaluated at the same time points as intraocular pressure measurement. It should be noted that untreated dog eyes frequently have a pink/red tone. Thus, values of trace or even mild are not necessarily out of the normal range.

hEP4/Gqs5 = target: T1, hEP4/Gqs5 (Homo sapiens, UniProt P35408); experiment: FLIPR calcium signal, hEP4/Gqs5; type: cell-based; details: HEK-293 (EBNA) cells, read-out: FUNCTIONAL EC50 HEP4
T1 construct: expressed in transfected cells; host or cells: HEK-293 (EBNA)
T1 sequence (P35408 whole entry): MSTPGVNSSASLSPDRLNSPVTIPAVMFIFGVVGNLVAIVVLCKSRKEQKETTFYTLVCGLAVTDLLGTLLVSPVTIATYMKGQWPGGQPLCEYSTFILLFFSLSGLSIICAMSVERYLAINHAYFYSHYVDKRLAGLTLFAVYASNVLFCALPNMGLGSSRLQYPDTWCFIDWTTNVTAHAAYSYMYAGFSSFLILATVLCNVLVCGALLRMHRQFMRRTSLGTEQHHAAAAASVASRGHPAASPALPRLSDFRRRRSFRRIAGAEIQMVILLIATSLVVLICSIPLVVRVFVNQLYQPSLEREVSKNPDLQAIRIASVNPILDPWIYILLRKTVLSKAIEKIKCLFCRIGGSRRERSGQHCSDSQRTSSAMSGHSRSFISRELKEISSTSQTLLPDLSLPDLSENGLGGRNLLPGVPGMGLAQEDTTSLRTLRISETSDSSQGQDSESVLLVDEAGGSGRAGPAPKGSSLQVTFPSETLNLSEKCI
Description: (§2) HEK-293 (EBNA) cells, stably expressing one type or subtype of recombinant human prostaglandin receptors (prostaglandin receptors expressed: hDP/Gqs5; hEP1; hEP2/Gqs5; hEP3A/Gqi5; hEP4/Gqs5; hFP; hIP; hTP), were cultured in 100 mm culture dishes in high-glucose DMEM medium containing 10% fetal bovine serum, 2 mM 1-glutamine, 250 μg/ml geneticin (G418) and 200 μg/ml hygromycin B as selection markers, and 100 units/ml penicillin G, 100 μg/ml streptomycin and 0.25 μg/ml amphotericin B. • (b) Calcium Signal Studies on the FLIPR™
(§3) Cells were seeded at a density of 5×10^4 cells per well in Biocoat® Poly-D-lysine-coated black-wall, clear-bottom 96-well plates (Becton-Dickinson) and allowed to attach overnight in an incubator at 37° C. Cells were then washed two times with HBSS-HEPES buffer (Hanks Balanced Salt Solution without bicarbonate and phenol red, 20 mM HEPES, pH 7.4) using a Denley Cellwash plate washer (Labsystems). After 45 minutes of dye-loading in the dark, using the calcium-sensitive dye Fluo-4 AM at a final concentration of 2 μM, plates were washed four times with HBSS-HEPES buffer to remove excess dye leaving 100 μl in each well. Plates were re-equilibrated to 37° C. for a few minutes.
(§4) Cells were excited with an Argon laser at 488 nm, and emission was measured through a 510–570 nm bandwidth emission filter (FLIPR™, Molecular Devices, Sunnyvale, Calif.). Drug solution was added in a 50 μl volume to each well to give the desired final concentration. The peak increase in fluorescence intensity was recorded for each well. On each plate, four wells each served as negative (HBSS-HEPES buffer) and positive controls (standard agonists: BW245C (hDP); PGE2 (hEP1; hEP2/Gqs5; hEP3A/Gqi5; hEP4/Gqs5); PGF2α (hFP); carbacyclin (hIP); U46619 (hTP), depending on receptor). The peak fluorescence change in each drug-containing well was then expressed relative to the controls.
(§5) Compounds were tested in a high-throughput (HTS) or concentration-response (CoRe) format. In the HTS format, forty-four compounds per plate were examined in duplicates at a concentration of 10^−5 M. To generate concentration-response curves, four compounds per plate were tested in duplicates in a concentration range between 10^−5 and 10^−11 M. The duplicate values were averaged. In either, HTS or CoRe format each compound was tested on at least 3 separate plates using cells from different passages to give an n≧3.

hTP = target: T2, hTP (Homo sapiens, UniProt P21731); experiment: FLIPR calcium signal, hTP; type: cell-based; details: HEK-293 (EBNA) cells, read-out: FUNCTIONAL EC50 HTP
T2 construct: expressed in transfected cells; host or cells: HEK-293 (EBNA)
T2 sequence (P21731 1-343): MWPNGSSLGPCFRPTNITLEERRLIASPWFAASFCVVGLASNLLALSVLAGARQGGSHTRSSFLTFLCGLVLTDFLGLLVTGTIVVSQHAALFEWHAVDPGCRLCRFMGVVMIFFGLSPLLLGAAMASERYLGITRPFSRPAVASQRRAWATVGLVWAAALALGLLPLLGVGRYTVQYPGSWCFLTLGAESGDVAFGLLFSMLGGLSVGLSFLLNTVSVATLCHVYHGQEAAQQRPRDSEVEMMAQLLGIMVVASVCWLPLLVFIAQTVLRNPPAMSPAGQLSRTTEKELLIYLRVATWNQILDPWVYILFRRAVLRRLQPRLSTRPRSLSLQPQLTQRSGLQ
Description: as §2, §3, §4, §5

HEP4 = target: T3, HEP4 (Homo sapiens, UniProt P35408); experiment: Radioligand binding, EP4 receptor; details: [3H]PGE2 5 nM, HEK-293 membranes
T3 construct: expressed in transfected cells; host or cells: HEK-293
T3 sequence (P35408 whole entry): as the sequence (P35408 whole entry) above
Description: (§6) HEK-293 cells stably expressing the human or feline FP receptor, or EP1, EP2, or EP4 receptors were washed with TME buffer, scraped from the bottom of the flasks, and homogenized for 30 sec using a Brinkman PT 10/35 polytron. TME buffer was added to achieve a final 40 ml volume in the centrifuge tubes (the composition of TME is 100 mM TRIS base, 20 mM MgCl2, […]; 10N HCl is added to achieve a pH of 7.4).
(§7) The cell homogenate was centrifuged at 19000 r.p.m. for 20 min at 4° C. using a Beckman Ti-60 rotor. The resultant pellet was resuspended in TME buffer to give a final 1 mg/ml protein concentration, as determined by Biorad assay. Radioligand binding competition assays vs. [^3H-]17-phenyl PGF2α (5 nM) were performed in a 100 μl volume for 60 min. Binding reactions were started by adding plasma membrane fraction. The reaction was terminated by the addition of 4 ml ice-cold TRIS-HCl buffer and rapid filtration through glass fiber GF/B filters using a Brandel cell harvester. The filters were washed 3 times with ice-cold buffer and oven dried for one hour. Non-specific binding was determined with 10 uM unlabeled 17-phenyl PGF2α.
(§8) [^3H-] PGE2 (5 nM; specific activity 180 Ci mmol) was used as the radioligand for EP receptors. Binding studies employing EP1, EP2, EP3, EP4 were performed in duplicate in at least three separate experiments. A 200 μl assay volume was used. Incubations were for 60 min at 25° C. and were terminated by the addition of 4 ml of ice-cold 50 mM TRIS-HCl, followed by rapid filtration through Whatman GF/B filters and three additional 4 ml washes in a cell harvester (Brandel). Non-specific binding determined with 10^−5M of unlabeled PGE2.

hEP3A/Gqi5 = target: T4, hEP3A/Gqi5 (Homo sapiens, UniProt P43115); experiment: FLIPR calcium signal, hEP3A/Gqi5; type: cell-based; details: HEK-293 (EBNA) cells, read-out: FUNCTIONAL EC50 HEP3A
T4 construct: expressed in transfected cells; host or cells: HEK-293 (EBNA)
T4 sequence (P43115 1-390): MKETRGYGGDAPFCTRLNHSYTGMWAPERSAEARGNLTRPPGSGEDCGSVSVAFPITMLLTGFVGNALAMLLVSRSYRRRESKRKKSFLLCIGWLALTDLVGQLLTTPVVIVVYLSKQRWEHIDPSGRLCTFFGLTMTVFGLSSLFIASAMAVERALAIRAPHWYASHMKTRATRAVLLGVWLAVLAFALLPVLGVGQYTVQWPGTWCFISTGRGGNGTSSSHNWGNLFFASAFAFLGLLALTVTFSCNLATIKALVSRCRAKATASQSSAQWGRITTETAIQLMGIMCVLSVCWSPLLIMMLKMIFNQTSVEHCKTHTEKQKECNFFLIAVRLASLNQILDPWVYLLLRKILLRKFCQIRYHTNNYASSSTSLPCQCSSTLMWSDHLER
Description: as §2, §3, §4, §5

HEP2 = target: T5, HEP2 (Homo sapiens, UniProt P43116); experiment: Radioligand binding, EP2 receptor; details: [3H]PGE2 5 nM, HEK-293 membranes
T5 construct: expressed in transfected cells; host or cells: HEK-293
T5 sequence (P43116 whole entry): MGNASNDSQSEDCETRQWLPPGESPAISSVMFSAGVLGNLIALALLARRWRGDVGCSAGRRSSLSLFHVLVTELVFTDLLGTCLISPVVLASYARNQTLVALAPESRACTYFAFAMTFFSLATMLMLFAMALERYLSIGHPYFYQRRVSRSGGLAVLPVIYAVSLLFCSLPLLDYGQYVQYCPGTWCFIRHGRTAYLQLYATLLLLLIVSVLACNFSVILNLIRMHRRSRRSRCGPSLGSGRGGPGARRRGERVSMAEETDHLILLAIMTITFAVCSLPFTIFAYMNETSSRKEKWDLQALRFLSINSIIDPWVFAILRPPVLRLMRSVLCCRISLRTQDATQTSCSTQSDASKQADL
Description: as §6, §7, §8

HEP3D = target: T6, HEP3D (Homo sapiens, UniProt P43115); experiment: Radioligand binding, EP3 receptor; details: [3H]PGE2 5 nM
T6 sequence (P43115 1-374 isoform P43115-4): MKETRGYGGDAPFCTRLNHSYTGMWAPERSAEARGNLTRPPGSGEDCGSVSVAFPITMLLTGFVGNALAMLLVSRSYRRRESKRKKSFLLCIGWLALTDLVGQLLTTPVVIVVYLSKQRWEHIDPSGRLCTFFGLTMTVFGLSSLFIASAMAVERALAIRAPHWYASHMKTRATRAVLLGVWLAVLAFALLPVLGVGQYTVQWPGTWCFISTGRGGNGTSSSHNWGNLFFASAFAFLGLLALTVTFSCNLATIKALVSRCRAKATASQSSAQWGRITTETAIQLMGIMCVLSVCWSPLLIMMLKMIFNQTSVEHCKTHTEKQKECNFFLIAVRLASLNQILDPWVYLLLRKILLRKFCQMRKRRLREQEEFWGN
Description: as §6, §7, §8

| SMILES | EC50 (hEP4/Gqs5) [nM] | EC50 (hTP) [µM] | IC50 (HEP4) [nM] | EC50 (hEP3A/Gqi5) [µM] | IC50 (HEP2) [µM] | IC50 (HEP3D) [µM] | Max. ΔIOP (Beagle dogs [1]) [mm Hg] | Max hyperemia (Beagle dogs [2]) |
| --- | --- | --- | --- | --- | --- | --- | --- | --- |
| CC(C)OC(=O)CSCCCS[C@H]1C(=O)C[C@@H](CO)[C@@H]1/C=C/C(O)Cc1ccccc1 (single isomer, unassigned) [Compound 150, {3-[3-Hydroxymethyl-2-(3-hydroxy-4-phenyl-but-1-enyl)-5-oxo-cyclopentylsulfanyl]-propylsulfanyl}-acetic acid isopropyl ester] |  |  |  |  |  |  | −5.5 | 0.9 |
| O=C(O)CSCCCS[C@H]1C(=O)CC[C@@H]1/C=C/C(O)CCc1ccc2ccccc2c1 (single isomer, unassigned) [drawing 36] | 1 |  | 140 |  | 8.1 |  |  |  |
| O=C(O)CSCCCS[C@H]1C(=O)CC[C@@H]1/C=C/C(O)Cc1ccccc1 (single isomer, unassigned) [drawing 47] | 60 |  | 55 | > 10 |  | > 10 |  |  |
| O=C(O)CSCCCS[C@H]1C(=O)CC[C@@H]1/C=C/C(O)Cc1ccccc1 (single isomer, unassigned) [drawing 48] |  | > 10 | 11 | > 10 |  | > 10 |  |  |
| O=C(O)CSCCCS[C@H]1C(=O)CC[C@@H]1/C=C/C(O)CCc1cc2ccccc2s1 (stereo partly drawn) [drawing 25, {3-[(1R,2R)-2-((E)-5-Benzo[b]thiophen-2-yl-3-hydroxy-pent-1-enyl)-5-oxo-cyclopentylsulfanyl]-propylsulfanyl}-acetic acid] | 3.7 | > 10 | 44 | 1.95 | > 10 | > 10 |  |  |
| O=C(O)CSCCCS[C@H]1C(=O)CC[C@@H]1/C=C/C(O)CCc1cc2ccccc2s1 (stereo partly drawn) [drawing 26, {3-[(1R,2R)-2-((E)-5-Benzo[b]thiophen-2-yl-3-hydroxy-pent-1-enyl)-5-oxo-cyclopentylsulfanyl]-propylsulfanyl}-acetic acid] | 2.4 |  | 45 |  | > 10 | > 10 |  |  |

Now from value to compound, other results behind:

| EC50 (hEP4/Gqs5) [nM] | EC50 (hTP) [µM] | IC50 (HEP4) [nM] | EC50 (hEP3A/Gqi5) [µM] | IC50 (HEP2) [µM] | IC50 (HEP3D) [µM] | SMILES | Max. ΔIOP (Beagle dogs [1]) [mm Hg] | Max hyperemia (Beagle dogs [2]) |
| --- | --- | --- | --- | --- | --- | --- | --- | --- |
| 1.8 | > 10 | 96 | > 10 |  |  | CC(O)(/C=C/[C@H]1CCC(=O)[C@@H]1SCCCSCC(=O)O)CCc1ccc2ccccc2c1 (single isomer, unassigned) [drawing 24] |  |  |
| 20 | > 10 | 200 |  |  |  | CC(O)(/C=C/[C@H]1CCC(=O)[C@@H]1SCCCSCC(=O)O)CCc1ccc2ccccc2c1 (single isomer, unassigned) [drawing 33] |  |  |
| 0.09 | > 10 | 19 | > 10 |  | > 10 | COC(=O)CSCCCS[C@H]1C(=O)CC[C@@H]1/C=C/C(O)Cc1ccccc1 (single isomer, unassigned) [drawing 46] |  |  |
| 11 |  | 300 |  | > 10 |  | COC(=O)CSCCCS[C@H]1C(=O)CC[C@@H]1/C=C/C(O)CCc1cc2ccccc2s1 (stereo partly drawn) [drawing 28, {3-[(1R,2R)-2-((E)-5-Benzo[b]thiophen-2-yl-3-hydroxy-pent-1-enyl)-5-oxo-cyclopentylsulfanyl]-propylsulfanyl}-acetic acid methyl ester] |  |  |
|  |  | 83 |  |  | > 10 | COC(=O)CSCCCS[C@H]1C(=O)CC[C@@H]1/C=C/C(O)Cc1ccc2ccccc2c1 (stereo partly drawn) [{3-[(1R,2R)-2-((E)-3-Hydroxy-4-naphthalen-2-yl-but-1-enyl)-5-oxo-cyclopentylsulfanyl]-propylsulfanyl}-acetic acid methyl ester] |  |  |
| 0.4 | > 10 | 26 | > 10 |  | > 10 | O=C(O)CSCCCS[C@H]1C(=O)CC[C@@H]1/C=C/C(O)Cc1ccc2ccccc2c1 (stereo partly drawn) [{3-[(1R,2R)-2-((E)-3-Hydroxy-4-naphthalen-2-yl-but-1-enyl)-5-oxo-cyclopentylsulfanyl]-propylsulfanyl}-acetic acid] |  |  |
